According to the NIST ThermoML archive (doi:10.1016/j.tca.2014.03.030):
± gives the expanded uncertainty stated by the source.

Columns and labels:
[1] = Molar enthalpy of transition or fusion
[2] = DTA

Row | Compound | Molar enthalpy of transition or fusion ([1]; Crystal) [kcal/mol] | Normal melting temperature ([2]; Crystal) [°C] | Molar enthalpy of transition or fusion ([1]; Crystal 1) [kcal/mol] | Normal melting temperature ([2]; Crystal 1) [°C]
1 | CCCCCCCCCC(=O)NCCc1ccc(O)cc1 [N-[2-(4-hydroxyphenyl)ethyl]decanamide] | 5.08 ± 0.311 | 81.47 ± 2.1 |  | 
2 | CCCCCCCCCCCC(=O)NCCc1ccc(O)cc1 [N-[2-(4-hydroxyphenyl)ethyl]dodecanamide] | 6.69 ± 0.382 | 91.39 ± 2.1 |  | 
3 | CCCCCCCCCCCCCCCC(=O)NCCc1ccc(O)cc1 [N-[2-(4-hydroxyphenyl)ethyl]hexadecanamide] |  |  | 11.8 ± 0.645 | 103.76 ± 2.1
4 | CCCCCCCCCCCCCC(=O)NCCc1ccc(O)cc1 [N-[2-(4-hydroxyphenyl)ethyl]tetradecanamide] |  |  | 10.4 ± 0.574 | 98.1 ± 2.1
